According to PMC10734772 (Turkish Journal of Chemistry, 2021):

How the values were obtained:
Format in all cases: cell-based
[1] = MTT assay, Hek293T non-leukemic control cells; conditions: human, read-out: Viability rate
Protocol: (§1) K562, Jurkat, Molt-4, and Nalm-6 cell lines were cultured in RPMI-1640 medium (ECM2001, Euroclone), Reh cell line was cultured in DMEM medium (LM-D1111-Biosera) Hek293T cell line was cultured in IMDM medium (AL070A - HiMedia) supplemented with 10% heat-inactivated fetal bovine serum (F7524-Merck & Co., USA,) penicillin and streptomycin (P4333-Sigma Aldrich). K562, Jurkat and Molt-4 cell lines were seeded as 4x10^5/ml, Reh and Nalm-6 cell lines were seeded 5x10^5/ml, Hek293T cell line was seed as 2x10^5/ml. All cells were incubated at 5% CO2 and 37 °C. All cell lines were kindly provided by Dr. M. Sayitoglu and Dr. Ö. Hatirnaz-Ng from Acibadem University.
(§2) MTT assay is a 3-day test. On the first day, cell count was performed in Bio Rad TC-20 device with the help of trypan blue, each cell line was prepared by diluting to the specified concentrations and seeded in a 96-well plate as 100μL to each well and incubated for 1 day.
(§3) Each compound was solved in DMSO, their stock solutions (33.3, 10, 5, 1 mM, and 300 μM) were prepared by diluting with the same solvent and they were stored under −20°C when they were not used.
(§4) On the second day, stock solutions were subsequently diluted to various concentrations (0.3–200 μM) with related medium prior to experiments. Specified concentrations of the compounds were seeded in a 96-well plate as 100μL to each well and incubated for 24 h.
(§5) After incubation (on the third day), to precipitate leukemia cells, the cell plate was centrifuged at 1500 rpm for 5 min. Then, 100 μL of supernatant was removed from each well carefully and 10 μl of MTT solution (5 mg/mL) was added to each well and incubated at 37 °C for 4 h. The 50 μl of supernatant was discarded from each well and 100 μl of DMSO was added to dissolve the formazan. Plates were shaken for 45 min to dissolve the dye. Then the optical density of each well was measured by using Thermo VarioSkan Flush Multimode Reader Quantum ST5-1100 at 570 nm wavelength.
(§6) Subsequently, viability rate of the cells at each concentration, as percentage, was determined by following formula (1):
(§7) Viability rate (%)=100-[(OD(control)-OD(sample))/OD(control)×100].OD=Optical Density
(§8) The IC50 values were calculated by using GraphPad Prism. All the data presented as the mean of 6 replicates. Results were analyzed and illustrated with Graph Pad Prism (version 5; GraphPad Software, San Diego, CA, USA). Statistical analysis was performed using dose-response inhibition, log(inhibitor) vs response-variable slope, least squares (ordinary) fit.
(§9) To evaluate in-vitro anti-cancer activity of the newly synthesized compounds, they were tested by using the MTT assay in the BCR-ABL positive leukemic cell line (K562), BCR-ABL negative leukemic cell lines (Nalm-6, Molt-4, Reh and Jurkat), and non-leukemic human embryonic kidney tissue (Hek293T) cell line. […] The viability rate of each concentration was calculated by the formula stated in material and methods, the viability rate results for each cell were presented in Table S2 and Figure S44.

K562 = assay: MTT assay, K562 cells; conditions: Homo sapiens, 24 h, MTT, read-out: Viability rate
Protocol: After incubation (on the third day), to precipitate leukemia cells, the cell plate was centrifuged at 1500 rpm for 5 min. […] The 50 μl of supernatant was discarded from each well and 100 μl of DMSO was added to dissolve the formazan. Plates were shaken for 45 min to dissolve the dye. Then the optical density of each well was measured by using Thermo VarioSkan Flush Multimode Reader Quantum ST5-1100 at 570 nm wavelength.
The IC50 values were calculated by using GraphPad Prism. All the data presented as the mean of 6 replicates. […] Statistical analysis was performed using dose-response inhibition, log(inhibitor) vs response-variable slope, least squares (ordinary) fit.

Jurkat = assay: MTT assay, Jurkat cells; conditions: Homo sapiens, 24 h, read-out: Viability rate
Protocol: as §1, §2, §3, §4, §5, §6, §7, §8, §9

Nalm-6 = assay: MTT assay, Nalm-6 cells; conditions: Homo sapiens, 24 h, MTT, read-out: Viability rate
[2] = tested on: K562, Nalm-6, Molt-4, Reh, Jurkat, Hek293T cell lines; assay: MTT assay, overall judgement over all cell lines; conditions: overall judgement in words; for 6 and 10: on all cell lines, except Reh
Protocol: as §9

Reh = assay: MTT assay, Reh cells; conditions: Homo sapiens, 24 h, read-out: Viability rate
Protocol: as §1, §2, §3, §4, §5, §6, §7, §8, §9

Molt-4 = assay: MTT assay, Molt-4 cells; conditions: Homo sapiens, MOLT-4, 24 h, read-out: Viability rate
Protocol: as §1, §2, §3, §4, §5, §6, §7, §8, §9

## Cc1ccc(NC(=O)c2ccc(CN3CCN(c4ncccn4)CC3)cc2)cc1Nc1cnccn1 [Compound 7, N-(4-Methyl-3-(pyrazin-2-ylamino)phenyl)-4-((4-(pyrimidin-2-yl)piperazin-1-yl)methyl)benzamide]
[1]; Hek293T cells (non-leukemic control cell line), 0.3 μM
  viability at 24 h, 0.3 µM: 87.7 ± 0.06%
[1]; Hek293T cells (non-leukemic control cell line), 0.5 μM
  viability at 24 h, 0.5 µM: 87.6 ± 0.07%
[1]; Hek293T cells (non-leukemic control cell line), 3 μM
  viability at 24 h, 3 µM: 84.6 ± 0.05%
[1]; Hek293T cells (non-leukemic control cell line), 5 μM
  viability at 24 h, 5 µM: 81 ± 0.09%
[1]; Hek293T cells (non-leukemic control cell line), 10 μM
  viability at 24 h, 10 µM: 80.5 ± 0.06%
[1]; Hek293T cells (non-leukemic control cell line), 15 μM
  viability at 24 h, 15 µM: 80.3 ± 0.04%
[1]; Hek293T cells (non-leukemic control cell line), 20 μM
  viability at 24 h, 20 µM: 76 ± 0.03%
[1]; Hek293T cells (non-leukemic control cell line), 30 μM
  viability at 24 h, 30 µM: 72.1 ± 0.02%
[1]; Hek293T cells (non-leukemic control cell line), 50 μM
  viability at 24 h, 50 µM: 64.5 ± 0.02%
[1]; Hek293T cells (non-leukemic control cell line), 70 μM
  viability at 24 h, 70 µM: 64.2 ± 0.02%
[1]; Hek293T cells (non-leukemic control cell line), 100 μM
  viability at 24 h, 100 µM: 63.5 ± 0.07%
[1]; Hek293T cells (non-leukemic control cell line), 150 μM
  viability at 24 h, 150 µM: 60.8 ± 0.03%
[1]; Hek293T cells (non-leukemic control cell line), 200 μM
  viability at 24 h, 200 µM: 55.1 ± 0.02%
[1]; Hek293T cells, 1 μM
  viability at 24 h, 1 µM: 87 ± 0.08%
K562; K562, 0.3 μM
  viability at 0.3 µM: 84.6 ± 0.15%
K562; K562, 0.5 μM
  viability at 0.5 µM: 84.5 ± 0.08%
K562; K562, 1 μM
  viability at 1 µM: 84.4 ± 0.08%
K562; K562, 3 μM
  viability at 3 µM: 84.5 ± 0.1%
K562; K562, 5 μM
  viability at 5 µM: 82.9 ± 0.12%
K562; K562, 10 μM
  viability at 10 µM: 81.6 ± 0.05%
K562; K562, 15 μM
  viability at 15 µM: 80.1 ± 0.06%
K562; K562, 20 μM
  viability at 20 µM: 64 ± 0.07%
K562; K562, 30 μM
  viability at 30 µM: 63.9 ± 0.04%
K562; K562, 50 μM
  viability at 50 µM: 62.9 ± 0.06%
K562; K562, 70 μM
  viability at 70 µM: 62.3 ± 0.07%
K562; K562, 100 μM
  viability at 100 µM: 62.2 ± 0.05%
K562; K562, 150 μM
  viability at 150 µM: 61.6 ± 0.05%
K562; K562, 200 μM
  viability at 200 µM: 59.5 ± 0.07%
Jurkat; 0.3 μM
  viability at 0.3 µM: 77.4 ± 0.09%
Jurkat; 0.5 μM
  viability at 0.5 µM: 77.3 ± 0.07%
Jurkat; 1 μM
  viability at 1 µM: 75.7 ± 0.03%
Jurkat; 3 μM
  viability at 3 µM: 75.5 ± 0.05%
Jurkat; 5 μM
  viability at 5 µM: 75.6 ± 0.03%
Jurkat; 10 μM
  viability at 10 µM: 74.6 ± 0.06%
Jurkat; 15 μM
  viability at 15 µM: 74.2 ± 0.05%
Jurkat; 20 μM
  viability at 20 µM: 74 ± 0.06%
Jurkat; 30 μM
  viability at 30 µM: 73.2 ± 0.07%
Jurkat; 50 μM
  viability at 50 µM: 72.8 ± 0.03%
Jurkat; 70 μM
  viability at 70 µM: 72.8 ± 0.03%
Jurkat; 100 μM
  viability at 100 µM: 72.7 ± 0.04%
Jurkat; 150 μM
  viability at 150 µM: 72.4 ± 0.09%
Jurkat; 200 μM
  viability at 200 µM: 72.1 ± 0.06%
Nalm-6; Nalm-6, 0.3 μM
  viability at 0.3 µM: 97.9 ± 0.06%
Nalm-6; Nalm-6, 0.5 μM
  viability at 0.5 µM: 95.1 ± 0.03%
Nalm-6; Nalm-6, 1 μM
  viability at 1 µM: 95.1 ± 0.03%
Nalm-6; Nalm-6, 3 μM
  viability at 3 µM: 96 ± 0.03%
Nalm-6; Nalm-6, 5 μM
  viability at 5 µM: 95.6 ± 0.02%
Nalm-6; Nalm-6, 10 μM
  viability at 10 µM: 95.1 ± 0.02%
Nalm-6; Nalm-6, 15 μM
  viability at 15 µM: 95.9 ± 0.03%
Nalm-6; Nalm-6, 20 μM
  viability at 20 µM: 96.4 ± 0.03%
Nalm-6; Nalm-6, 30 μM
  viability at 30 µM: 96.5 ± 0.05%
Nalm-6; Nalm-6, 50 μM
  viability at 50 µM: 72.3 ± 0.02%
Nalm-6; Nalm-6, 70 μM
  viability at 70 µM: 71.8 ± 0.02%
Nalm-6; Nalm-6, 100 μM
  viability at 100 µM: 71.3 ± 0.02%
Nalm-6; Nalm-6, 150 μM
  viability at 150 µM: 70.2 ± 0.01%
Nalm-6; Nalm-6, 200 μM
  viability at 200 µM: 59.7 ± 0.02%
[2]
  anticancer activity according to MTT assay results: very poor activity
Reh; 0.3 μM
  viability at 0.3 µM: 110 ± 0.02%
Reh; 0.5 μM
  viability at 0.5 µM: 109.8 ± 0.02%
Reh; 1 μM
  viability at 1 µM: 108.7 ± 0.02%
Reh; 3 μM
  viability at 3 µM: 103.4 ± 0.02%
Reh; 5 μM
  viability at 5 µM: 108.8 ± 0.02%
Reh; 10 μM
  viability at 10 µM: 106.5 ± 0.05%
Reh; 15 μM
  viability at 15 µM: 100.2 ± 0.02%
Reh; 20 μM
  viability at 20 µM: 95.5 ± 0.06%
Reh; 30 μM
  viability at 30 µM: 85.4 ± 0.02%
Reh; 50 μM
  viability at 50 µM: 66.7 ± 0.02%
Reh; 70 μM
  viability at 70 µM: 66.2 ± 0.03%
Reh; 100 μM
  viability at 100 µM: 67.7 ± 0.03%
Reh; 150 μM
  viability at 150 µM: 66.8 ± 0.02%
Reh; 200 μM
  viability at 200 µM: 62.8 ± 0.02%
Molt-4; Molt-4, 0.3 μM
  viability at 0.3 µM: 93.3 ± 0.16%
Molt-4; Molt-4, 0.5 μM
  viability at 0.5 µM: 93.8 ± 0.08%
Molt-4; Molt-4, 1 μM
  viability at 1 µM: 89.8 ± 0.07%
Molt-4; Molt-4, 3 μM
  viability at 3 µM: 89.6 ± 0.12%
Molt-4; Molt-4, 5 μM
  viability at 5 µM: 89.7 ± 0.08%
Molt-4; Molt-4, 10 μM
  viability at 10 µM: 89.5 ± 0.06%
Molt-4; Molt-4, 15 μM
  viability at 15 µM: 90.3 ± 0.04%
Molt-4; Molt-4, 20 μM
  viability at 20 µM: 90.2 ± 0.06%
Molt-4; Molt-4, 30 μM
  viability at 30 µM: 90.9 ± 0.06%
Molt-4; Molt-4, 50 μM
  viability at 50 µM: 92.2 ± 0.05%
Molt-4; Molt-4, 70 μM
  viability at 70 µM: 90.6 ± 0.06%
Molt-4; Molt-4, 100 μM
  viability at 100 µM: 85.5 ± 0.06%
Molt-4; Molt-4, 150 μM
  viability at 150 µM: 90.4 ± 0.04%
Molt-4; Molt-4, 200 μM
  viability at 200 µM: 89.8 ± 0.07%
